Assay results taken from patent publication US20130267474A1, “NOVEL PHYTOCHEMICALS FROM EXTRACTS OF MAPLE SYRUPS AND MAPLE TREES AND USES THEREOF” (UNIVERSITY OF RHODE ISLAND, priority 2010, published 2013).
Where two headings read alike, the source gives them in different places.

What was measured:
[1] = test system: HT-29 (human colon adenocarcinoma); test: MTS cytotoxicity / antiproliferative assay; type: cell-based; conditions: for HT-29 48 h IC50 / HT-29 72 h IC50: ginnalins
Protocol: (§1) Cell lines included three human colon cancer cells: HT-29 (human colon adenocarcinoma), HCT116 (human colon carcinoma) and Caco-2 (human epithelial colorectal adenocarcinoma). In addition, normal human colon cells are included: CCD-^18Co (human colon fibroblasts). All cell lines are obtained from the American Type Culture Collection (ATCC, Rockville, Md., USA) and maintained at the University of Rhode Island.
(§2) The assay is carried out to measure the IC50 values for samples. […] Test samples and a positive control, etoposide 4 mg/mL (Sigma), are solubilized in DMSO by sonication. […] Control wells are also included on all plates. […] Each point on the curve is […]. Data (see tables 6 to 9) are expressed as mean±SE for three replications on each cell line.

[2] = test system: CCD-18Co (normal human colon fibroblasts); test: MTS cytotoxicity / antiproliferative assay; type: cell-based; conditions: 72 h; for CCD-18Co 72 h IC50: ginnalins
Protocol: as §1, §2

[3] = test system: Caco-2 (human epithelial colorectal adenocarcinoma); test: MTS cytotoxicity / antiproliferative assay; type: cell-based; conditions: for Caco-2 48 h IC50 / Caco-2 72 h IC50: ginnalins
Protocol: as §1, §2

[4] = test system: HCT-116 (human colon carcinoma); test: MTS cytotoxicity / antiproliferative assay; type: cell-based; conditions: for HCT-116 48 h IC50 / HCT-116 72 h IC50: ginnalins
Protocol: as §1, §2

[5] = DPPH radical scavenging (antioxidant) assay; type: biochemical; conditions: Table 10; mean ± standard deviation; 30 min, 515 nm; read-out: IC50 (μM), DPPH radical scavenging
Protocol: The DPPH radical scavenging activity of ascorbic acid (vitamin C) and the synthetic commercial antioxidant, butylated hydroxytoluene (BHT) are also assayed as positive controls (see Table 10). […] Absorbance is determined after 30 min at 515 nm, and the scavenging capacity (SC) is calculated as SC %=[(A0−A1/A0)]×100, where A0 is the absorbance of the reagent blank and A1 is the absorbance of the test samples. The control contained all reagents except the compounds, and all tests are performed in triplicate.
Absorbance is determined after 30 min at 515 nm, and the scavenging capacity (SC) is calculated as SC %=[(A0−A1/A0)]×100 where A0 is the absorbance of the reagent blank, and A1 is the absorbance with test samples. The control contained all reagents except the compounds and all tests are performed in triplicate.

[6] = Homo sapiens, HT-29, 48 h, read-out: HT-29 48 h(IC50), Table 6 maple compounds, 48 h, unit inferred
[7] = Homo sapiens, HT-29, 72 h, Table 6 maple compounds, 72 h, unit inferred, read-out: HT-29 72 h(IC50)
[8] = Homo sapiens, CCD-18Co, Table 6 maple compounds, unit inferred, read-out: CCD-18Co 72 h(IC50)
[9] = Homo sapiens, Caco-2, 48 h, read-out: Caco-2 48 h(IC50), Table 6 maple compounds, 48 h, unit inferred
[10] = Homo sapiens, Caco-2, 72 h, Table 6 maple compounds, 72 h, unit inferred, read-out: Caco-2 72 h(IC50)
[11] = Homo sapiens, HCT-116, 48 h, read-out: HCT-116 48 h(IC50), Table 6 maple compounds, 48 h, unit inferred
[12] = Homo sapiens, HCT-116, 72 h, Table 6 maple compounds, 72 h, unit inferred, read-out: HCT-116 72 h(IC50)
[13] = Homo sapiens, HT-29, 48 h, read-out: Antiproliferative activity HT-29 48 h (IC50), 48 h, pure isolated compounds
[14] = Homo sapiens, HT-29, 72 h, 72 h, pure isolated compounds, read-out: Antiproliferative activity HT-29 72 h (IC50)
[15] = Homo sapiens, Caco-2, 72 h, 72 h, pure isolated compounds, read-out: Antiproliferative activity Caco-2 72 h (IC50)
[16] = Homo sapiens, HCT-116, 48 h, read-out: Antiproliferative activity HCT-116 48 h (IC50), 48 h, pure isolated compounds
[17] = Homo sapiens, HCT-116, 72 h, 72 h, pure isolated compounds, read-out: Antiproliferative activity HCT-116 72 h (IC50)
[18] = Homo sapiens, HCT-116, 72 h, 72 h, range given for the group, unit inferred, read-out: IC50 against HCT-116 cells at 72 h (moderately active group)
[19] = Homo sapiens, CCD-18Co, pure isolated compounds, read-out: Antiproliferative activity CCD-8Co 72 h (IC50)
[20] = Homo sapiens, Caco-2, 48 h, read-out: Antiproliferative activity Caco-2 48 h (IC50), 48 h, pure isolated compounds
[21] = Homo sapiens, HCT-116, 72 h, 72 h, range given for the group, read-out: IC50 against HCT-116 cells at 72 h (activity ranking)

Compound	IC50 [5] [µM]	IC50 [1, 7] [µM]	IC50 [3, 10] [µM]	IC50 [4, 11] [µM]	IC50 [4, 12] [µM]	IC50 [1, 13] [µM]	IC50 [1, 14] [µM]	IC50 [3, 15] [µM]	IC50 [4, 16] [µM]	IC50 [4, 17] [µM]	IC50 [4, 21] [µM]	other results
O=C(OC[C@H]1OC[C@H](OC(=O)c2cc(O)c(O)c(O)c2)[C@@H](O)[C@@H]1O)c1cc(O)c(O)c(O)c1 [Ginnalin A]												HT-29 48 h IC50 ([1]; 48 h): 31.0 ± 2.6 µg/mL; HT-29 72 h IC50 ([1]; 72 h): 24.1 ± 1.3 µg/mL; CCD-18Co 72 h IC50 [2]: 46.6 ± 3.6 µg/mL; Caco-2 48 h IC50 ([3]; 48 h): 28.8 ± 1.8 µg/mL; Caco-2 72 h IC50 ([3]; 72 h): 21.7 ± 1.0 µg/mL; HCT-116 48 h IC50 ([4]; 48 h): 21.5 ± 1.6 µg/mL; HCT-116 72 h IC50 ([4]; 72 h): 16.3 ± 2.1 µg/mL
COc1cc(C2Oc3c(OC)cc(CCCO)cc3C2CO)cc(OC)c1O (stereo not drawn) [compound 4]		68.2	70.9	78	59.1							IC50 [1, 6]: 88.7 µM; IC50 [2, 8]: 99.6 µM; IC50 [3, 9]: 85 µM
COc1ccc(C2OC(=O)C(O)(Cc3ccc(OC4OC(C)C(O)C(O)C4O)c(OC)c3)C2CO)cc1OC [compound 7, [3-[4-[(6-deoxy-α-L-mannopyranosyl)oxy]-3-methoxyphenyl]methyl]-5-(3,4-dimethoxyphenyl)dihydro-3-hydroxy-4-(hydroxymethyl)-2(3H)-furanone]	740.2 ± 3.4	98.2	96.8		103							
COc1cc2ccc(=O)oc2c(O)c1O [compound 9, fraxetin]	479 ± 42.1	93.4	101	112	84.5	101 ± 1.2	93.4 ± 2.6	101 ± 1.3	112 ± 1.8	84.5 ± 1.6		IC50 [1, 6]: 101 µM; IC50 [4, 18]: 75 to 85 µM
O=Cc1ccc(O)c(O)c1 [compound 14, catechaldehyde]		63.9	58.9	63.3	52.9	71.6 ± 1.5	63.9 ± 1.6	58.9 ± 1.9	63.3 ± 1.3	52.9 ± 1.4	42 to 67	IC50 [1, 6]: 71.6 µM; IC50 [2, 8]: 126 µM; IC50 [2, 19]: 126 ± 4.6 µM; IC50 [3, 20]: 73.2 ± 1.3 µM; IC50 [3, 9]: 73.2 µM
Oc1ccccc1O [compound 23, catechol]						99.4 ± 2.1	70.3 ± 2	64.1 ± 2.5	86 ± 2.4	63 ± 1.3	42 to 67	IC50 [2, 19]: 115 ± 2.7 µM; IC50 [3, 20]: 71.5 ± 2.3 µM
OCCc1ccc(O)cc1 [compound 50, tyrosol]						128 ± 2.3	114 ± 1.8	100 ± 2.6	115 ± 1.5	94.3 ± 1.8	94 to 110	IC50 [2, 19]: 145 ± 4.1 µM; IC50 [3, 20]: 112 ± 1.9 µM
COc1cc(C(CO)C(c2ccc(O)c(OC)c2)c2ccc(O)c(OC)c2)ccc1O (stereo not drawn) [compound 54, Quebecol]						103 ± 1.7	86.1 ± 0.8	78.5 ± 1.4	95.3 ± 0.6	76.2 ± 1.2		IC50 [2, 19]: 120 ± 1.5 µM; IC50 [3, 20]: 98.2 ± 1.5 µM; IC50 [4, 18]: 75 to 85 µM
O=C(OC[C@H]1OC[C@H](O)[C@@H](O)[C@@H]1O)c1cc(O)c(O)c(O)c1 [compound 71, ginnalin-B]												HT-29 48 h IC50 ([1]; 48 h): 36.2 ± 1.5 µg/mL; HT-29 72 h IC50 ([1]; 72 h): 27.3 ± 0.6 µg/mL; IC50 ([1]; Table 6 maple compounds, 72 h, unit inferred, read-out: HT-29 72 h(IC50)): 86.5 µM; IC50 ([1]; read-out: HT-29 48 h(IC50), Table 6 maple compounds, 48 h, unit inferred): 98.9 µM; CCD-18Co 72 h IC50 [2]: 47.1 ± 5.3 µg/mL; IC50 ([2]; Table 6 maple compounds, unit inferred, read-out: CCD-18Co 72 h(IC50)): 107 µM; Caco-2 48 h IC50 ([3]; 48 h): 31.1 ± 1.9 µg/mL; Caco-2 72 h IC50 ([3]; 72 h): 22.6 ± 1.9 µg/mL; IC50 ([3]; Table 6 maple compounds, 72 h, unit inferred, read-out: Caco-2 72 h(IC50)): 71.6 µM; IC50 ([3]; read-out: Caco-2 48 h(IC50), Table 6 maple compounds, 48 h, unit inferred): 98.7 µM; HCT-116 48 h IC50 ([4]; 48 h): 25.1 ± 1.8 µg/mL; HCT-116 72 h IC50 ([4]; 72 h): 20.0 ± 2.0 µg/mL; IC50 ([4]; Table 6 maple compounds, 72 h, unit inferred, read-out: HCT-116 72 h(IC50)): 50.9 µM; IC50 ([4]; read-out: HCT-116 48 h(IC50), Table 6 maple compounds, 48 h, unit inferred): 66.8 µM
dehydroconiferyl alcohol [compound 3]	925 ± 179											
gallic acid [compound 17]	703 ± 141											
lyoniresinol [compound 1]	946 ± 58.5											
syringaldehyde [compound 16]	2880 ± 44											

More lines, main results first:

IC50 [5] [µM]	Compound	IC50 [1, 7] [µM]	IC50 [3, 10] [µM]	IC50 [4, 11] [µM]	IC50 [4, 12] [µM]	IC50 [1, 13] [µM]	IC50 [1, 14] [µM]	IC50 [3, 15] [µM]	IC50 [4, 16] [µM]	IC50 [4, 17] [µM]	IC50 [4, 21] [µM]	other results
578.5 ± 1.3	COc1cc(/C=C/c2ccc(O)c(OC)c2)ccc1O [compound 10, (E)-3,3′-dimethoxy-4,4′-dihydroxystilbene]		93.1									
422.9 ± 2.4	O=C(CO)c1ccc(O)c(O)c1 [compound 11, 2-hydroxy-3′,4′-dihydroxyacetophenone]		86									IC50 [3, 9]: 92.5 µM
1810 ± 266	COc1cc(C=O)ccc1O [compound 15, vanillin]	114		120	110		114 ± 1.5		120.3 ± 1	110 ± 1.7	94 to 110	
322 ± 31.9	COc1cc(/C=C/CO)cc(OC)c1O [compound 20, syringenin]	113		124	108	126 ± 3	113 ± 1.5		123.5 ± 1.1	108 ± 1.5	94 to 110	IC50 [1, 6]: 126 µM
138 ± 28.2	COc1cc(C(=O)C(O)CO)ccc1O (stereo not drawn) [compound 22, C-veratroylglycol]	88.6	90.8	82.9	66.7	96 ± 1.5	88.6 ± 1.3	90.8 ± 1	82.9 ± 2.1	66.7 ± 1.5	42 to 67	IC50 [1, 6]: 96 µM; IC50 [3, 20]: 101 ± 1.6 µM; IC50 [3, 9]: 101 µM
258 ± 33.8	syringic acid [compound 19]											
112 ± 5.1	trimethyl gallic acid methyl ester [compound 18]											
